Source: patent publication US20240238231A1, “EDTA AND EGTA FOR USE IN PRESERVING THE INTEGRITY OF THERAPEUTIC COMPOUNDS” (Axcess (UK) Ltd, priority 2021, published 2024)

Legend:
[1] = molecular target: T1, Trypsin from porcine pancreas (Sus scrofa, UniProt P00761); assay: Inhibition of trypsin activity, fluorescence microplate assay with Z-L-arginine-4-methyl-7-coumarinylamide substrate; assay type: biochemical; conditions: for effect on the activity of trypsin: pH 7, 30 minutes
T1 construct: from tissue; host or cells: porcine pancreas
Method: A dilute solution of phosphate-buffered saline (PBS) was prepared at a concentration of 0.3 mM phosphate (pH7), and used to dissolve calcium chloride dihydrate or magnesium chloride at a concentration of 0.3 mg/ml. Trypsin from porcine pancreas was dissolved in the Ca/PBS buffer, in either the presence or absence of calcium, at a concentration of trypsin at 0.02 mg/ml. 5 ml aliquots of disodium EDTA (dihydrate) solution were prepared in PBS with and without calcium or magnesium at doubling dilutions from 8 mg/ml downwards, and the pH of each solution adjusted to 7. Trypsin substrate (namely Z-L-arginine-4-methyl-7-coumarinylamide HCl) was dissolved in DMSO at a concentration of 0.125 mg/ml, then diluted 100-fold in Ca/PBS buffer. EDTA solutions were dispensed into the wells of a black microplate (60 ul per well) then 10 ul of trypsin solution was added, followed by 10 ul of substrate. The reaction was allowed to proceed for 30 minutes, and the extent of reaction determined in a fluorescence microplate reader by measuring the fluorescence of the reaction product (coumarin) at excitation wavelength 365 nm, emission 440 nm.
A dilute solution of phosphate-buffered saline (PBS) was prepared at a concentration of 0.3 mM phosphate (pH7), and used to dissolve calcium chloride dihydrate at a concentration of 0.3 mg/ml. Trypsin from porcine pancreas was dissolved in the Ca/PBS buffer at a concentration of 0.02 mg/ml trypsin. 5 ml aliquots of disodium EGTA (dihydrate) solution were prepared in PBS at doubling dilutions from 8 mg/ml downwards, and the pH of each solution adjusted to 7. Trypsin substrate (namely Z-L-arginine-4-methyl-7-coumarinylamide HCl) was dissolved in DMSO at a concentration of 0.125 mg/ml, then diluted 100-fold in Ca/PBS buffer. EGTA solutions were dispensed into the wells of a black microplate (60 ul per well) then 10 ul of trypsin solution was added, followed by 10 ul of substrate. The reaction was allowed to proceed for 30 minutes, and the extent of reaction determined in a fluorescence microplate reader by measuring the fluorescence of the reaction product (coumarin) at excitation wavelength 365 nm, emission 440 nm.
A dilute solution of phosphate-buffered saline (PBS) was prepared at a concentration of 0.3 mM phosphate (pH7), and used to dissolve calcium chloride dihydrate at a concentration of 0.3 mg/ml. Trypsin from porcine pancreas was dissolved in the buffer, in either the presence or absence of calcium, at a concentration of 0.02 mg/ml. 5 ml aliquots of disodium EGTA (dihydrate) solution and phenanthroline (Low concentrations of phenanthroline only were employed, because of its limited solubility in aqueous phase) were prepared in PBS with and without calcium at doubling dilutions from 8 mg/ml downwards, and the pH of each solution adjusted to 7. Trypsin substrate (namely Z-L-arginine-4-methyl-7-coumarinylamide HCl) was dissolved in DMSO at a concentration of 0.125 mg/ml, then diluted 100-fold in Ca/PBS buffer. EGTA solutions and phenanthroline were dispensed into the wells of a black microplate (60 ul per well) then 10 ul of trypsin solution was added, followed by 10 ul of substrate. The reaction was allowed to proceed for 30 minutes, and the extent of reaction determined in a fluorescence microplate reader by measuring the fluorescence of the reaction product (coumarin) at excitation wavelength 365 nm, emission 440 nm.

chymotrypsin = conditions: in the presence of calcium ions only, FIG. 4
Method: Experiment 1 was repeated, except that chymotrypsin was employed, instead of trypsin, and the experiment was conducted in the presence of calcium ions only.

[2] = in combination with / in the presence of calcium (0.3 mg/ml), FIG. 1 and FIG. 3

T1 sequence (P00761 9-231): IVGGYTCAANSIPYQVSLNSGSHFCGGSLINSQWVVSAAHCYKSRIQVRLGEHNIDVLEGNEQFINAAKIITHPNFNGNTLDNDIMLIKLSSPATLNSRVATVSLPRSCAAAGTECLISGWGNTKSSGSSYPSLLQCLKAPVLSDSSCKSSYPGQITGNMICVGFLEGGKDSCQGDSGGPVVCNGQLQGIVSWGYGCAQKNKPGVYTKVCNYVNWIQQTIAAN

For `O=C(O)CN(CCN(CC(=O)O)CC(=O)O)CC(=O)O` [EDTA], which “effect on the activity of trypsin” value ([1]; EDTA alone (no calcium or magnesium), doubling dilutions from 8 mg/ml, FIG. 1) is on record?
The value was “significant inhibitory effect”.

What about the “effect on the activity of trypsin” value [1, 2] of the same compound?
Its value is “significant inhibitory effect”.

And the “effect on the activity of trypsin” value ([1]; in combination with magnesium (0.5 mg/ml), FIG. 1)?
Its value is “significant inhibitory effect”.

And the “effect on the protease activity of chymotrypsin” value (chymotrypsin)?
Its value is “inhibitory effect”.

How did the “effect on the activity of trypsin” value ([1]; EGTA doubling dilutions from 8 mg/ml, presence and absence of calcium ions, FIG. 2) turn out when `O=C(O)CN(CCOCCOCCN(CC(=O)O)CC(=O)O)CC(=O)O` [EGTA] was run?
The value was “inhibitory effect”.

How did the “effect on the activity of trypsin” value [1, 2] turn out when `O=C(O)CC(O)(CC(=O)O)C(=O)O` [citrate, citric acid, reference compound] was run?
Its value is “no effect”.

Which “effect on the activity of trypsin” value [1, 2] does the source give for `c1cnc2c(c1)ccc1cccnc12` [phenanthroline, ortho-phenanthroline, reference compound] here?
Its value is “no inhibitory effect”.

With `[Zn+2]` [zinc] as the compound, how does the “effect of the metal ion on inhibition of trypsin by EDTA or EGTA” value ([1]; metal ion combined with EDTA or EGTA, calcium and magnesium show inhibition) read?
Its value is “has no such effect”.
